These results are taken from US7109193B2, “Tricyclic diazepines tocolytic oxytocin receptor antagonists” (Wyeth, priority 2001, dated 2006).

For one assay, the target named is T1, human oxytocin receptor (Homo sapiens, UniProt P30559).
T1 construct: host or cells: CHO cells (pcDNA3.1 vector)
T1 sequence (P30559 1-389): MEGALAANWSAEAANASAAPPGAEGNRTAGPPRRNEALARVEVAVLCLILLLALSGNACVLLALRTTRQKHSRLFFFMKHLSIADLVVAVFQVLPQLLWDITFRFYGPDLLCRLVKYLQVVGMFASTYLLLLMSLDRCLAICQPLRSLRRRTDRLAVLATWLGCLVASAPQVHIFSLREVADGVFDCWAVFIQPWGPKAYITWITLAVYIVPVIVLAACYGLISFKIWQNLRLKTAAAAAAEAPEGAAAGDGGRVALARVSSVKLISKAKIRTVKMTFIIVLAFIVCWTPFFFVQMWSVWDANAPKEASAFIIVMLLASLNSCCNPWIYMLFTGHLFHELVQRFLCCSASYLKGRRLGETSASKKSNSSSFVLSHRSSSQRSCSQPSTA
Description: Oxytocin binding in Chinese Hamster Ovary cell membranes expressing human oxytocin receptors. The note with it: 100 nM, CHO cell membranes, [3H]oxytocin, values without parentheses. Here is the method:
Oxytocin Binding in Chinese Hamster Ovary Cell Membranes Expressing Human Oxytocin Receptors
The trypsin is removed by aspiration and the cells dislodged by tapping. Cell Culture medium (e.g. 30 mL for 1:30 split) is immediately added and mixed well to inactivate trypsin. 1 mL of detached cells is added to new culture flasks containing fresh Cell Culture medium (e.g. into 25 mL per T-150 flask), and mixed gently. The cells are incubated at 37° C. in 5% CO2. The medium is changed at 3 to 4 days interval (or as appropriate). […] All steps are done under sterile conditions. B. Membrane Preparation: The cells are washed twice gently with Hank's Balanced Salt solution (e.g., use 10 mL per T-150 flask). […] The contents are transferred to centrifuge tubes (50 mL size) kept in ice bath. All subsequent steps are done at 4° C. The tubes are centrifuged at 300×g for 15 min (1380 rpm on SORVAL, Model RT6000D, using rotor for 50 mL tubes). The supernatant is discarded and the cells suspended in homogenizing buffer (10 mM Tris-HCl containing 0.25 M sucrose and 1 mM EDTA, pH 7.4) ensuring that the volume of the buffer is about ten times the volume of the cell pellet. The cells are pooled into a centrifuge tube (50 mL) and homogenized with a Polytron at setting 6 for 10 sec. The homogenate is transferred into a Potter-Elvjehm homogenizer and homogenized with 3 strokes. The homogenate is centrifuged at 1500×g for 10 min at 4° C. (3100 rpm using SORVAL, model RT6000D, using rotor for 50 mL tubes). The pellet is discarded. The supernatant is centrifuged at 100,000×g for 60 min. at 4° C. (Beckman L8-80M ultracentrifuge; spin at 37,500 rpm with rotor type 70 Ti for 50 mL tubes; 38,000 rpm with type 80Ti for 15 mL tubes; or 35,800 rpm with rotor type 45Ti). The supernantant is discarded and the pellet suspended in 3 to 4 mL of Tris buffer (50 mM TRIS-HCl, pH 7.4). The protein content is estimated by the Bradford or Lowry method. The volume of the membrane suspension is adjusted with the membrane buffer (50 mM Tris-HCl containing 0.1% BSA and 0.1 mM PMSF) to give 3.0 mg/mL (or as appropriate) of protein. The membranes are aliquoted and stored at −70° C. C. Radioligand Binding Assay: In wells of a 96-well format microtiter plate, is added 90, 110 or 130 μL (to make up a final volume of 200 μL) of assay buffer containing 50 mM of Tris-HCl (pH 7.4), […], 1 mg % aprotinin, 1 mg % leupeptin, 2 mg % 1,10-phenanthroline, 10 mg % trypsin inhibitor, and 0.1 mM PMSF. The inhibitors are added on the day of the experiment. The components are mixed at room temperature, and then kept in ice bath following adjustment of the pH to 7.4. […] For oxytocin and other peptide ligands, 20 μL of 50% DMSO is added and the assay buffer volume is adjusted accordingly. To each well is added 50 μL of frozen membrane suspension thawed immediately prior to use and diluted in assay buffer to the required concentration (equivalent to 25 to 50 μg of protein/well as needed). 20 μL of 8 nM [^3H]oxytocin in the assay buffer, prepared just before use is added and incubated at room temperature for 60 min. shaking the plate on a mechanical shaker for the first 15 min. The incubation is stopped by rapid filtration of the plate contents followed by washing with ice-cold buffer (50 mM Tris-HCl, pH 7.4) using a cell harvester (Tomtek and Printed filtermat-B filter paper). The filter paper is thoroughly dried (7–12 min. in a microwave oven) and impregnated with MeltiLex B/H melt-on scintillation wax sheets and the radioactivity counted in a betaplate scintillation counter.
Binding data is either reported as percent inhibition at a certain concentration or if an IC50 was calculated, as a nanomolar concentration.
In the case of `COc1cc(C(=O)N2Cc3ccc(C(=O)N4CCC[C@H]4CN4CCCC4)n3Cc3ccccc32)ccc1-c1ccccc1Cl` [Example 33, {[10-(2-Methoxy)-2′-chloro-[1,1′-biphenyl]-4-yl]carbonyl}-[(2S)-[(2-pyrrolidin-1-yl)methyl]pyrrolidin-1-yl]-10,11-dihydro-5H-pyrrolo[2,1-c][1,4]benzodiazepin-3-yl-methanone], the “OT % inhibition @ 100% nM” value came out at 101%.
Still for that read-out and setting: next, `COc1cc2c(cc1OC)N(C(=O)c1ccc(-c3ccccc3C(F)(F)F)c(C)c1)Cc1ccc(C(=O)N(C)CCCN(C)C)n1C2.Cl` [Example 13, N-Methyl-[N-(3-dimethylamino)propyl]-7,8-dimethoxy-10-{[2-methyl-2′-(trifluoromethyl)[1,1′-biphenyl]-4-yl]carbonyl}-10,11-dihydro-5H-pyrrolo[2,1-c][1,4]benzodiazepine-3-carboxamide hydrochloride salt]: 33%.
With `COc1cc(C(=O)N2Cc3ccc(C(=O)N4CC[C@@H](N(C)C)C4)n3Cc3ccccc32)ccc1-c1ccccc1C` [Example 281, [(3R)-3-(Dimethylamino)pyrrolidinyl]{10-[(2-methoxy-2′-methyl[1,1′-biphenyl]-4-yl)carbonyl]-10,11-dihydro-5H-pyrrolo[2,1-c][1,4]benzodiazepin-3-yl}methanone], the “OT % inhibition @ 100% nM” value is 93%.
Same read-out and setting: the figure for `COc1cc(C(=O)N2Cc3ccc(C(=O)N(C)CCCN(C)C)n3Cc3ccccc32)ccc1-n1c(C)ccc1C` [Example 310, N-[3-(Dimethylamino)propyl]-10-[4-(2,5-dimethyl-i H-pyrrol-1-yl)-3-methoxybenzoyl]-N-methyl-10,11-dihydro-5H-pyrrolo[2,1-c][1,4]benzodiazepine-3-carboxamide] is 58%.
Same read-out and setting: next, `COc1ccccc1-c1ccc(C(=O)N2Cc3ccc(C(=O)N4CC[C@@H](N(C)C)C4)n3Cc3ccccc32)cc1` [Example 279, [(3R)-3-(Dimethylamino)pyrrolidinyl]{10-[(2′-methoxy[1,1′-biphenyl]-4-yl)carbonyl]-10,11-dihydro-5H-pyrrolo[2,1-c][1,4]benzodiazepin-3-yl}methanone]: 100%.
`COc1ccccc1-c1ccc(C(=O)N2Cc3ccc(C(=O)N4CCC[C@H]4CN4CCCC4)n3Cc3ccccc32)cc1` [Example 265, {10-[(2′-Methoxy[1,1′-biphenyl]-4-yl)carbonyl]-10,11-dihydro-5H-pyrrolo[2,1-c][1,4]benzodiazepin-3-yl}[(2S)-2-(1-pyrrolidinylmethyl)pyrrolidinyl]methanone]: the “OT % inhibition @ 100% nM” value is listed as 100%.
Same read-out and setting: next, `COc1cccc(-c2ccc(C(=O)N3Cc4ccc(C(=O)N5CC[C@@H](N(C)C)C5)n4Cc4ccccc43)cc2OC)c1` [Example 283, {10-[(2,3′-Dimethoxy[1,1′-biphenyl]-4-yl)carbonyl]-10,11-dihydro-5H-pyrrolo[2,1-c][1,4]benzodiazepin-3-yl}[(3R)-3-(dimethylamino)pyrrolidinyl]methanone]: 91%.

The assay is the same for the next values; noted with them: 100 nM, CHO cell membranes, [3H]oxytocin, values without parentheses, read-out: OT % inhibition @ 100% nM.
The term inhibition denotes the drop in the measured response relative to a control, in per cent. With `COc1ccccc1-c1ccc(C(=O)N2Cc3ccc(C(=O)N(C)CCCN(C)C)n3Cc3ccccc32)cc1OC` [Example 107, 10-[(2,2′-Dimethoxy[1,1′-biphenyl]-4-yl)carbonyl]-N-[3-(dimethylamino)propyl]-N-methyl-10,11-dihydro-5H-pyrrolo[2,1-c][1,4]benzodiazepine-3-carboxamide], the inhibition at 0.1 µM amounted to 87%.
Take `Cc1ccccc1-c1ccc(C(=O)N2Cc3ccc(C(=O)N4CCC(N5CCCC5)CC4)n3Cc3ccccc32)cc1C` [Example 138, {10-[(2,2′-Dimethyl[1,1′-biphenyl]-4-yl)carbonyl]-10,11-dihydro-5H-pyrrolo[2,1-c][1,4]benzodiazepin-3-yl}[4-(1-pyrrolidinyl)-1-piperidinyl]methanone]: the inhibition at 0.1 µM amounted to 95%.
The same measure, in the same setting: the figure for `COc1cccc(-c2ccc(C(=O)N3Cc4ccc(C(=O)N5CCC(N6CCCC6)CC5)n4Cc4ccccc43)cc2C)c1` [Example 139, {10-[(3′-Methoxy-2-methyl[1,1′-biphenyl]-4-yl)carbonyl]-10,11-dihydro-5H-pyrrolo[2,1-c][1,4]benzodiazepin-3-yl}[4-(1-pyrrolidinyl)-1-piperidinyl]methanone] is 76%.
Same read-out and setting: the figure for `Cc1ccccc1-c1ccc(C(=O)N2Cc3ccc(C(=O)NCCN4CCCCC4)n3Cc3ccccc32)cc1C` [Example 150, 10-[(2,2′-Dimethyl[1,1′-biphenyl]-4-yl)carbonyl]-N-[2-(1-piperidinyl)ethyl]-10,11-dihydro-5H-pyrrolo[2,1-c][1,4]benzodiazepine-3-carboxamide] is 75%.
The same measure, in the same setting: next, `Cc1ccccc1-c1ccc(C(=O)N2Cc3ccc(C(=O)NCCCn4ccnc4)n3Cc3ccccc32)cc1C` [Example 124, 10-[(2,2′-Dimethyl[1,1′-biphenyl]-4-yl)carbonyl]-N-[3-(1H-imidazol-1-yl)propyl]-10,11-dihydro-5H-pyrrolo[2,1-c][1,4]benzodiazepine-3-carboxamide]: 60%; `COc1cc(C(=O)N2Cc3ccc(C(=O)N4CCC(N5CCCCC5)CC4)n3Cc3ccccc32)ccc1-c1ccccc1C` [Example 116, {10-[(2-Methoxy-2′-methyl[1,1′-biphenyl]-4-yl)carbonyl]-10,11-dihydro-5H-pyrrolo[2,1-c][1,4]benzodiazepin-3-yl}[4-(1-piperidinyl)-1-piperidinyl]methanone]: 84%.
As for `Cc1ccccc1-c1ccc(C(=O)N2Cc3ccc(C(=O)N4CCC(N5CCCCC5)CC4)n3Cc3ccccc32)cc1` [Example 115, {10-[(2′-Methyl[1,1′-biphenyl]-4-yl)carbonyl]-10,11-dihydro-5H-pyrrolo[2,1-c][1,4]benzodiazepin-3-yl}[4-(1-piperidinyl)-1-piperidinyl]methanone], the inhibition at 0.1 µM came to 25%.
On the same count and under the same terms, the figure for `COc1cc(-c2ccccc2C)c(Cl)cc1C(=O)N1Cc2ccc(C(=O)NCCCn3ccnc3)n2Cc2ccccc21` [Example 129, 10-[(6-Chloro-3-methoxy-2′-methyl[1,1′-biphenyl]-4-yl)carbonyl]-N-[3-(1H-imidazol-1-yl)propyl]-10,11-dihydro-5H-pyrrolo[2,1-c][1,4]benzodiazepine-3-carboxamide] is 52%.
Still for that read-out and setting: next, `Cc1ccccc1-c1ccc(C(=O)N2Cc3ccc(C(=O)NCCN4CCCCC4)n3Cc3ccccc32)cc1` [Example 153, 10-[(2′-Methyl[1,1′-biphenyl]-4-yl)carbonyl]-N-[2-(1-piperidinyl)ethyl]-10,11-dihydro-5H-pyrrolo[2,1-c][1,4]benzodiazepine-3-carboxamide]: 60%.
